Values belong to the molecule of their own block, whether it stands above or below them.
Tests used:
[1] = MRT in Sprague-Dawley rat at 12.48 mg/kg, po by LC-MS/MS analysis; assay type: ADME, organism-based; conditions: in vivo
[2] = Plasma concentration in Sprague-Dawley rat at 12.48 mg/kg, po measured at 0.25 hrs by LC-MS/MS analysis; assay type: ADME, organism-based
Rattus norvegicus [3] = experiment: (§1) Anti-hypersensitive activity in MCT-induced pulmonary arterial hypertension Sprague-Dawley rat model assessed as reduction in cardiomyocyte hypertrophy by measuring cross-sectional area of cardiomyocyte at 37.5 mg/kg, po administered daily for 14 days starting from 14 days post-MCT challenge and measured post-last dose in presence of DCA by hematoxylin and eosin staining-based microscopic analysis (reference value: 418 +/- 50.88 micrometer2); assay type: functional
[4] = Plasma concentration in Sprague-Dawley rat at 12.48 mg/kg, po measured at 1 hr by LC-MS/MS analysis; assay type: ADME, organism-based
Rattus norvegicus [5] = experiment: (§2) Anti-hypersensitive activity in MCT-induced pulmonary arterial hypertension Sprague-Dawley rat model assessed as right ventricular systolic pressure at 37.5 mg/kg, po administered daily for 14 days starting from 14 days post-MCT challenge and measured post-last dose by pressure transducer-coupled polygraphy (reference value: 59.06 +/- 3.26 mmHg); assay type: functional
Rattus norvegicus [6] = experiment: as §2, with “dose in presence of DCA” for “dose”; assay type: functional
[7] = Tmax in Sprague-Dawley rat at 12.48 mg/kg, po by LC-MS/MS analysis; assay type: ADME, organism-based; conditions: in vivo
Rattus norvegicus [8] = experiment: (§3) Anti-hypersensitive activity in MCT-induced pulmonary arterial hypertension Sprague-Dawley rat model assessed as lung fibrosis at 37.5 mg/kg, po administered daily for 14 days starting from 14 days post-MCT challenge and measured post-last dose in presence of DCA by Masson's trichrome staining-based microscopic analysis (reference value: 6.12 +/- 1.66%); assay type: functional
[9] = Elimination rate constant in Sprague-Dawley rat at 12.48 mg/kg, po by LC-MS/MS analysis; assay type: ADME, organism-based; conditions: in vivo
[10] = AUMC (0 to t) in Sprague-Dawley rat at 12.48 mg/kg, po by LC-MS/MS analysis; assay type: ADME, organism-based; conditions: in vivo
[11] = Plasma concentration in Sprague-Dawley rat at 12.48 mg/kg, po measured at 0.5 hrs by LC-MS/MS analysis; assay type: ADME, organism-based
[12] = Cmax in Sprague-Dawley rat at 12.48 mg/kg, po by LC-MS/MS analysis; assay type: ADME, organism-based; design: dose 12.48 mg/kg, route oral; conditions: in vivo
Rattus norvegicus [13] = experiment: Hemodynamic activity in Sprague-Dawley rat assessed as effect on mean systemic arterial pressure at 37.5 mg/kg, po administered daily for 2 weeks by pressure transducer-coupled polygraphy; assay type: ADME, organism-based; conditions: in vivo, 336 h
Rattus norvegicus [14] = experiment: as §3, with “reduction in cardiomyocyte hypertrophy by measuring cardiac” for “lung”, “dose” for “dose in presence of DCA”, “11.74” for “6.12”, “3.24 %)” for “1.66%)”; assay type: functional; design: scale not given: the % may be the effect or the level left
Rattus norvegicus [15] = experiment: as §2, with “mean pulmonary artery” for “right ventricular systolic”, “dose in presence of DCA” for “dose”, “36” for “59.06”, “2.83” for “3.26”; assay type: functional
[16] = Plasma concentration in Sprague-Dawley rat at 12.48 mg/kg, po measured at 4 hrs by LC-MS/MS analysis; assay type: ADME, organism-based
[17] = AUMC (0 to infinity) in Sprague-Dawley rat at 12.48 mg/kg, po by LC-MS/MS analysis; assay type: ADME, organism-based; conditions: in vivo
Rattus norvegicus [18] = experiment: as §2, with “mean pulmonary artery” for “right ventricular systolic”, “36” for “59.06”, “2.83” for “3.26”; assay type: functional
[19] = AUC (0 to t) in Sprague-Dawley rat at 12.48 mg/kg, po by LC-MS/MS analysis; assay type: ADME, organism-based; conditions: in vivo
[20] = AUC (0 to infinity) in Sprague-Dawley rat at 12.48 mg/kg, po by LC-MS/MS analysis; assay type: ADME, organism-based; design: dose 12.48 mg/kg, time infinity, route oral; conditions: in vivo
Rattus norvegicus [21] = experiment: as §1, with “dose” for “dose in presence of DCA”; assay type: functional
Rattus norvegicus [22] = experiment: as §3, with “pulmonary artery medial thickness” for “lung fibrosis”, “hematoxylin and eosin” for “Masson's trichrome”, “6.12” left out, “[…])” for “1.66%)”; assay type: functional
Rattus norvegicus [23] = experiment: as §3, with “pulmonary artery medial thickness” for “lung fibrosis”, “dose” for “dose in presence of DCA”, “hematoxylin and eosin” for “Masson's trichrome”, “6.12” left out, “[…])” for “1.66%)”; assay type: functional
Rattus norvegicus [24] = experiment: as §3, with “dose” for “dose in presence of DCA”; assay type: functional
[25] = Plasma concentration in Sprague-Dawley rat at 12.48 mg/kg, po measured at 2 hrs by LC-MS/MS analysis; assay type: ADME, organism-based
Rattus norvegicus [26] = experiment: as §3, with “reduction in cardiomyocyte hypertrophy by measuring cardiac” for “lung”, “11.74” for “6.12”, “3.24 %)” for “1.66%)”; assay type: functional; design: scale not given: the % may be the effect or the level left
Rattus norvegicus [27] = experiment: Hemodynamic activity in Sprague-Dawley rat assessed as effect on mean systemic arterial pressure at 37.5 mg/kg, po administered daily for 2 weeks in presence of DCA by pressure transducer-coupled polygraphy; assay type: ADME, organism-based; conditions: in vivo, 336 h
Rattus norvegicus [28] = experiment: as §3, with “15.5” for “37.5”, “dose” for “dose in presence of DCA”; assay type: functional
Rattus norvegicus [29] = experiment: Hemodynamic activity in Sprague-Dawley rat assessed as effect on mean systemic arterial pressure at 15.5 mg/kg, po administered daily for 2 weeks by pressure transducer-coupled polygraphy; assay type: ADME, organism-based; conditions: in vivo, 336 h
Rattus norvegicus [30] = experiment: as §2, with “mean pulmonary artery” for “right ventricular systolic”, “15.5” for “37.5”, “36” for “59.06”, “2.83” for “3.26”; assay type: functional
Rattus norvegicus [31] = experiment: as §2, with “hypertrophy index” for “systolic pressure”, “15.5” for “37.5”, “[…]” for “59.06”, “[…]” for “3.26”; assay type: functional
Rattus norvegicus [32] = experiment: Anti-hypersensitive activity in MCT-induced pulmonary arterial hypertension Sprague-Dawley rat model assessed as pulmonary artery medial thickness at 15.5 mg/kg, po administered daily for 14 days starting from 14 days post-MCT challenge and measured post-last dose by hematoxylin and eosin staining-based microscopic analysis (reference value: […] +/- […]); assay type: functional
Rattus norvegicus [33] = experiment: as §1, with “15.5” for “37.5”, “dose” for “dose in presence of DCA”; assay type: functional
Rattus norvegicus [34] = experiment: as §3, with “reduction in cardiomyocyte hypertrophy by measuring cardiac” for “lung”, “15.5” for “37.5”, “dose” for “dose in presence of DCA”, “11.74” for “6.12”, “3.24 %)” for “1.66%)”; assay type: functional; design: scale not given: the % may be the effect or the level left
Rattus norvegicus [35] = experiment: as §2, with “15.5” for “37.5”; assay type: functional

MRT [1]: 72 min | concentration at 0.25 h [2]: 84.2 ng/mL | concentration at 1 h [4]: 17.8 ng/mL | Tmax [7]: 15 min | k el [9]: 0.000253 s⁻¹ | AUMCt [10]: 52.8 hr.hr.ng/ml | concentration at 0.5 h [11]: 23.2 ng/mL | Cmax [12]: 84.2 ng/mL | concentration at 4 h [16]: 3.85 ng/mL | AUMC [17]: 75.7 hr.hr.ng/ml | AUC(0-t) [19]: 55.4 ng·h/mL | AUC(0-inf) [20]: 59.8 ng·h/mL | concentration at 2 h [25]: 7.01 ng/mL
Structure (SMILES): Cl.O=S(=O)(c1cccc2cnccc12)N1CCCNCC1 [FASUDIL HYDROCHLORIDE]
Activity (Rattus norvegicus [3]): 341.12 um2 | Activity (Rattus norvegicus [5]): 59.9 mmHg | Activity (Rattus norvegicus [6]): 51.13 mmHg | Activity (Rattus norvegicus [8]): 6.71% | Activity (Rattus norvegicus [13]): Non-Toxic | Activity (Rattus norvegicus [14]): 3.97% | Activity (Rattus norvegicus [15]): 29.83 mmHg | Activity (Rattus norvegicus [18]): 32.83 mmHg | Activity (Rattus norvegicus [21]): 354.35 um2 | Activity (Rattus norvegicus [22]): 0.2 | Activity (Rattus norvegicus [23]): 0.21 | Activity (Rattus norvegicus [24]): 6.41% | Activity (Rattus norvegicus [26]): 3.84% | Activity (Rattus norvegicus [27]): Non-Toxic

Structure (SMILES): O=C([O-])C(Cl)Cl.[Na+] [SODIUM DICHLOROACETATE]
Activity (Rattus norvegicus [28]): 12.45% | Activity (Rattus norvegicus [29]): Non-Toxic | Activity (Rattus norvegicus [30]): 34 mmHg | Activity_index (Rattus norvegicus [31]): 0.564 | Activity (Rattus norvegicus [32]): 0.3 | Activity (Rattus norvegicus [33]): 387.53 um2 | Activity (Rattus norvegicus [34]): 8.47% | Activity (Rattus norvegicus [35]): 57.4 mmHg
